“And” between values parts separate entries of the source, which are not always exact repeats. Equal entries are not always repeated. Toxic doses and inconclusive results are not listed. The calls were made as follows: active = survival T/C of 150% or more; inactive = T/C below 125% in these data.
System: BDF1 mice, P388 leukemia ip, median survival T/C
Experiment: NCI In Vivo Anticancer Drug Screen. Data for tumor model P388 Leukemia (intraperitoneal) in B6D2F1 (BDF1) mice
Settings: endpoint: median survival time, higher = longer survival
In short: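 Steps: implant the tumour, treat one group with compound and another with vehicle, record survival, then divide treated by control.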

[1] = dose: 25.0 mg/kg/injection, schedule: Q04DX003 (ip), vehicle: saline
[2] = dose: 50.0 mg/kg/injection, schedule: Q01DX009 (ip), vehicle: saline with Tween-80
[3] = dose: 100.0 mg/kg/injection, schedule: Q01DX009 (ip), vehicle: saline with Tween-80
[4] = dose: 200.0 mg/kg/injection, schedule: Q01DX009 (ip), vehicle: saline with Tween-80
[5] = dose: 100.0 mg/kg/injection, schedule: Q04DX003 (ip), vehicle: saline with Tween-80
[6] = dose: 200.0 mg/kg/injection, schedule: Q04DX003 (ip), vehicle: saline with Tween-80
[7] = dose: 400.0 mg/kg/injection, schedule: Q04DX003 (ip), vehicle: saline with Tween-80
[8] = dose: 400.0 mg/kg/injection, schedule: Q01DX009 (ip), vehicle: saline with Tween-80

Measured: T/C

Nc1cc(=O)[nH]c(O)c1C(=O)O
inactive: dose: 6.25 mg/kg/injection, schedule: Q04DX003 (ip), vehicle: saline 109 % of control | dose: 12.5 mg/kg/injection, schedule: Q04DX003 (ip), vehicle: saline 100 % of control | [1] 100 % of control | dose: 35.0 mg/kg/injection, schedule: Q04DX003 (ip), vehicle: saline 100 % of control | dose: 55.0 mg/kg/injection, schedule: Q04DX003 (ip), vehicle: saline 113 % of control | dose: 80.0 mg/kg/injection, schedule: Q04DX003 (ip), vehicle: saline 100 % of control | dose: 120.0 mg/kg/injection, schedule: Q04DX003 (ip), vehicle: saline 104 % of control | dose: 180.0 mg/kg/injection, schedule: Q04DX003 (ip), vehicle: saline 86 % of control | dose: 270.0 mg/kg/injection, schedule: Q04DX003 (ip), vehicle: saline 100 % of control

CS(=O)(=O)OCCCl
inactive: dose: 18.8 mg/kg/injection, schedule: Q01DX010 (ip), vehicle: saline 105 % of control and 120 % of control | dose: 37.5 mg/kg/injection, schedule: Q01DX010 (ip), vehicle: saline 100 % of control and 110 % of control | dose: 75.0 mg/kg/injection, schedule: Q01DX010 (ip), vehicle: saline 100 % of control

CCO/C=C1\SC(=S)N(c2ccc(O)cc2)C1=O
inactive: [2] 116 % of control | [3] 116 % of control | [4] 116 % of control

Nc1nc(=O)c2ccccc2s1
inactive: [5] 105 % of control | [6] 111 % of control | [7] 100 % of control

COc1cccc(CCNC(=O)CCN2C(=O)c3ccccc3C2=O)c1
inactive: [3] 95 % of control | [4] 109 % of control | [8] 100 % of control

O=C(O)CNC(CSCc1ccccc1)CSCc1ccccc1
inactive: dose: 25.0 mg/kg/injection, schedule: Q04DX003 (ip), vehicle: saline with Tween-80 101 % of control | dose: 50.0 mg/kg/injection, schedule: Q01DX009 (ip), vehicle: saline 93 % of control | dose: 50.0 mg/kg/injection, schedule: Q04DX003 (ip), vehicle: saline with Tween-80 106 % of control | dose: 100.0 mg/kg/injection, schedule: Q01DX009 (ip), vehicle: saline 112 % of control | [5] 98 % of control | dose: 200.0 mg/kg/injection, schedule: Q01DX009 (ip), vehicle: saline 111 % of control | [6] 97 % of control | dose: 400.0 mg/kg/injection, schedule: Q01DX009 (ip), vehicle: saline 116 % of control | [7] 97 % of control

O=[N+]([O-])c1ccc2c(c1)c(-c1cc(Cl)cc(Cl)c1)nc1ccccc12
inactive: dose: 25.0 mg/kg/injection, schedule: Q01DX009 (ip), vehicle: saline with Tween-80 108 % of control | [2] 97 % of control | [3] 101 % of control | [5] 99 % of control | [4] 90 % of control | [6] 88 % of control | [8] 99 % of control | [7] 107 % of control

O=C(OC1CC2CCCC21)c1cc([N+](=O)[O-])cc([N+](=O)[O-])c1 (centres undefined)
inactive: dose: 100.0 mg/kg/injection, schedule: Q01DX001 (ip), vehicle: saline with Tween-80 94 % of control | dose: 200.0 mg/kg/injection, schedule: Q01DX001 (ip), vehicle: saline with Tween-80 97 % of control | dose: 400.0 mg/kg/injection, schedule: Q01DX001 (ip), vehicle: saline with Tween-80 99 % of control

OCC1CC[N-]CC1.OCC1CC[N-]CC1.[Cl][Pt+2]([Cl])([Cl])[Cl]
inactive: [1] 104 % of control | dose: 50.0 mg/kg/injection, schedule: Q04DX003 (ip), vehicle: saline 101 % of control | dose: 100.0 mg/kg/injection, schedule: Q04DX003 (ip), vehicle: saline 118 % of control
